Test results published in patent US7074770B1, “Method of DNA vaccination” (SmithKline Beecham Corporation, priority 1998, dated 2006).
“Also recorded” adds a separate entry of the source. Where two headings read alike, the source gives them in different places.

B1: GM-CSF: GM-CSF given as adjuvant with DNA immunisation (protein, UniProt P01587 18-141, looked up)
Granulocyte-macrophage …: APTRSPITVTRPWKHVEAIKEALNLLDDMPVTLNEEVEVVSNEFSFKKLTCVQTRLKIFEQGLRGNFTKLKGALNMTASYYQTYCPPTPETDCETQVTTYADFIDSLKTFLTDIPFECKKPGQK

Experiments:
[1] = system: EL4 cells pulsed with H-2 Db-restricted NP peptide; assay: Lytic CTL response after gene gun NP DNA immunisation (europium release); format: in vivo, C57Bl/6 mice; conditions: gene gun NP plasmid 10 ng; tucaresol s.c. 1 mg or oral 15 mg/kg x5 days; FIG. 9
Method: C57B1/6 mice were immunised with plasmid DNA encoding the influenza virus nucleoprotein with or without tucaresol given subcutaneously (FIG. 9a) or orally (FIG. 9b). Splenocytes were restimulated in-vitro with A/PR8/34 virus. Standard europium release techniques were used to determine specific lysis of MHC matched target cells pulsed with H-2 D^b-restricted NP peptide.
C57BI/6 mice were immunised with plasmid DNA (10 ng) encoding the influenza virus nucleoprotein (NP) with and without tucaresol given sub-cutaneously (sc). Mice were killed 14 days post-immunisation and restimulated in-vitro (5 days) with irradiated splenocytes pulsed with virus (A/PR8/34). Standard europium release techniques were used to determine specific lysis of MHC-matched target cells (EL4 cells) pulsed with H-2 D^b-restricted NP peptide. Non-specific lysis was less than 15% for all controls. Tucaresol was given subcutaneously (1 mg) at the site of intrepidermal gene-gun immunisation.
C57B1/6 mice were immunised with plasmid DNA (10 ng) encoding the influenza virus nucleoprotein (NP) with and without tucaresol given orally. Mice were killed 14 days post-immunisation and restimulated in-vitro (5 days) with irradiated splenocytes pulsed with virus (A/PR8/34). Standard europium release techniques were used to determine specific lysis of EL4 cells pulsed with H-2D^b-restricted NP peptide. […]

CD4 Th-cells = conditions: previously reported (22); cited from earlier work
[2] = system: mycobacterial hsp65 (M.hsp65); format: in vivo, mice
S6C-E4 tumour cells = assay: Tumour outgrowth inhibition in vivo after EBNA-4 plasmid immunisation; parameters: species or system ACA mice; conditions: i.m. 40 μg E4 x3, tucaresol 200 μg s.c. days 1-4; challenge with S6C-E4 s.c.; FIG. 7
Method: Groups of ACA mice were immunised three times with p3, E4 or E4,T, and were subsequently challenged with […] S6C tumour cells. Mice were sacrificed when tumour diameter reached 20 mm.
Epstein Barr virus has been implicated in some cancers. We analysed the effect of tucaresol on tumour outgrowth inhibition in vivo as a result of pDNA vaccination with a plasmid expressing EBNA-4 (FIG. 7). Mice were immunised by intramuscular injection with 40 μg of either control mock plasmid pCDNA3 (P3), plasmid expressing EBNA-4 (E4) or plasmid expressing EBNA-4 followed 1, 2, 3 and 4 days later with administration of 200 μg of tucaresol s.c.—i.e. 800 μg total tucaresol per mouse (E4T). This immunisation schedule was repeated 1 month and 2 months after the initial immunisation. Two weeks after the last immunisation mice were challenged with […] S6C-E4 tumour cells s.c. Mice were sacrificed when the tumour reached a 20 mm diameter.

[3] = system: Jk-A2/kb target cells pulsed with M.hsp65 peptide; format: in vivo, HLA A2 transgenic mice
[4] = system: splenocytes re-stimulated with NP peptide; format: in vivo, C57BL/6 mice; conditions: pVAC1.PR gene gun
[5] = system: lymph node T cells (response to ovalbumin peptide); assay: T-cell priming after gene gun DNA immunisation (pVAC1.Ova) with conventional adjuvants; format: in vivo, mice; conditions: gene gun pVAC1.Ova with or without adjuvants given s.c.; 3 days later
From the text: Proliferation of lymph node T cells in response to pDNA or DNA encoding ovalbumin (PVAC1.Ova) in isolation and in combination with adjuvants LPS, CFA, GM-CSF and Heat-Killed Listeria monocytogenes (HKLM).
Lymphoid cells from TCR-transgenic mice, expressing a receptor specific for an ovalbumin antigen were transferred into normal syngeneic mice. These mice were then immunised subcutaneously (by means of gene gun) with plasmid DNA (pVAC1) or with plasmid DNA construct encoding ovalbumin (pVAC1.Ova) with or without adjuvants given subcutaneously. Three days later, regional lymph node cells were removed and their proliferative response to ovalbumin peptide was measured by means of incorporation of tritiated thymidine into DNA. This provides a measure of the degree of specific T-cell priming that occurred in vivo in response to immunisation. […] However, in contrast to the conventional peptide immunisation, none of the adjuvants were able to enhance this response to DNA immunisation.

Row | Molecule | lytic CTL response (specific lysis) [1] | CD4 Th-cell response (CD4 Th-cells) | IgG2a anti-M.hsp65 antibody response (Th1 associated) ([2]; FIG. 3b) | IgG1 anti-M.hsp65 antibody response (Th2 associated) ([2]; compared to p3 immunised mice, FIG. 3c) | specific antibody response with control plasmid ([2]; control plasmid p3 and tucaresol (p3, T)) | anti-M.hsp65 antibody (IgG) titres ([2]; i.m. 20 μg p3M.65, tucaresol 1 mg s.c. simultaneously or cytokine plasmids equimolar, FIG. 3a) | tumour outgrowth inhibition (S6C-E4 tumour cells) | CTL activity against target cells pulsed with the cognate M.hsp65 epitope ([3]; immunised twice, splenocytes stimulated with peptide, FIG. 6) | lytic activity against Jk-A2/kb cells unpulsed or pulsed with control influenza peptide ([3]; mouse, in vivo) | CTL cytokine response (IFNγ positive cells per 10e6 splenocytes) ([4]; tucaresol oral gavage 15 mg/kg daily for 5 days) | CTL cytokine response (IFNγ positive cells per 10e6 splenocytes) ([4]; tucaresol s.c. 2×1 mg at site of DNA vaccination) | T-cell priming in response to DNA immunisation [5]
1 | O=Cc1c(O)cccc1OCc1ccc(C(=O)O)cc1 [tucaresol, 4-(2-formyl-3-hydroxyphenoxymethyl)benzoic acid] | Enhances | enhanced CD4 Th-cell response, selectively favouring a Th 1-type profile over Th 2 | significantly (P=0.003) increased; also recorded: strongly enhanced | did also induce | no increase in the specific antibody response | markedly increased; also recorded: comparable to the effect of the GM-CSF plasmid | significantly enhances; also recorded: markedly enhanced | high CTL activity; also recorded: markedly enhanced | much lower | doubling of the response | small but significant increase | –
2 | B1 | – | – | – | – | – | – | – | – | – | – | – | failed to enhance the response
